Results from patent US7572828B2, “Identification of anti-HIV compounds inhibiting virus assembly and binding of nucleocapsid protein to nucleic acid” (The United States of America as represented by the …, priority 2002, dated 2009).

How the values were obtained:
HIV = experiment: XTT-cytoprotection assay, cell based anti-HIV screening in CEM-SS cells; settings: for XTT: protection from HIV infection
From the text: One exemplary means to determine antiviral activity is with CEM-SS cells and virus (e.g., HIV-1RF) (MOI=0.01) using the XTT (2,3-bis[2-methoxy- 4-nitro-5-sulfophenyl]-5- [(phenylamino)carbonyl]-2H-tetrazolium hydroxide) cytoprotection assay (see, e.g., Weislow, et al, J. Natl. Canc. Inst. 81: 577-586, 1989; Rice PNAS 90:9721-9724, 1993; and Rice Antimicrob. Agents Chemother. 41:419-426, 1997). Briefly, cells are infected with HIV-1RF (or other virus to be tested) in the presence of various dilutions of test compounds (antimony or diphenyl compounds and controls). The cultures are incubated for seven days. […] The cell death is measured by XTT dye reduction. XTT is a soluble tetrazolium dye that measures mitochondrial energy output, similar to MTT. Positive controls using dextran sulfate (an attachment inhibitor) or 3′-Azido -2′-3′-dideoxythymidine, AZT (a reverse transcriptase inhibitor) are added to each assay. Individual assays are done in duplicate using a sister plate method.
Effective antiviral concentrations providing 50% cytoprotection (EC50), and cellular growth inhibitory concentrations causing 50% cytotoxicity (IC50) are calculated.
Cell based anti-HIV screening was performed in CEM-SS cells, using an XTT-cytoprotection assay (see, e.g., Weislow, et al, J. Natl. Canc. Inst. 81: 577-586, 1989; Rice PNAS 90:9721-9724, 1993; and Rice Antimicrob. Agents Chemother. 41:419-426, 1997)).

p24 = settings: unit not given
Gag precursor protein = target: T1, Gag precursor protein (Human immunodeficiency virus type 1 group M subtype B, UniProt P04591); experiment: Secondary screen: disruption of in vitro assembly of Gag precursor protein into virus-like particles; format: biochemical; settings: for disrupted viral assembly: artificial viral particles from recombinant Gag protein and tRNA; for EC50: in vitro, assay not given
T1 construct: human immunodeficiency virus type 1 Gag protein lacking the p6 domain; made in house
From the text: A secondary screen was used to identify small molecules that disrupt in vitro assembly of Gag precursor protein into virus-like particles. Artificial viral particles were assembled from recombinant Gag protein and tRNA as previously described (see, e.g., Campbell & Rein, “In vitro assembly properties of human immunodeficiency virus type 1 Gag protein lacking the p6 domain” J. Virol. 73: 2270-2279, 1999). […]

NC-p7 protein = target: T2, NC-p7 protein (Human immunodeficiency virus type 1 group M subtype B, UniProt P04591); experiment: High throughput screen: disruption of association of viral NC-p7 protein with a biotinylated 28 base oligonucleotide; format: binding, HIV-1; settings: 10 μM of test compound; hit threshold 100% inhibition
T2 construct: nucleocapsid p7 (NCp7) protein portion of the polyprotein
Description: A high throughput screen was used to detect small molecules that disrupted the association of viral NC-p7 protein with an oligonucleotide. The assay was performed using a Tomtec Quadra robotic system. NC protein was immobilized on Costar (Corning, N.Y.) high-bind polystyrene 96 well plates by incubating 100 μl 250 nM NC-p7 in phosphate buffered saline (PBS)/10 μM zinc chloride/10 mM β-mercaptoethanol/0.05% Tween overnight at 4° C. 200 μl of 2% BSA in PBS/10 μM zinc chloride/10 mM β-mercaptoethanol/0.05% Tween was added and incubated at room temperature for 1-2 hours in order to block the plates. The plates were then washed 2 times with 200 μl PBS/10 μM zinc chloride/10 mM β-mercaptoethanol/0.05% Tween using a Titertek M96V plate washer and stored overnight at 4° C. 5 nM biotinylated 28 base oligonucleotide (5′ […] 3′) in PBS/10 μM zinc chloride/10 mM β-mercaptoethanot/0.05% Tween was added to each well followed by 10 μM of test compound (in 20% dimethyl sulphoxide) from the Diversity Set and allowed to incubate at room temperature for 1 hour. Plates were then washed 3 times with 200 μl PBS/0.05% Tween. Binding of the biotinylated 28 mer was measured by adding 100 μl 1:20000 dilution of nutravidin-horse radish peroxidase (stock 0.8 mg/ml, from Pierce Chemical Co. Rockford, Ill.) and incubating at room temperature for 1 hour. The plates were washed 3 times with 200 μl PBS/0.05% Tween. Plates were developed by adding 100 μl of Supersignal (Pierce Chemical Co. Rockford, Ill.) and bioluminescence was measured in a Wallac Victor plate reader. […] The hit threshold was set at 100% inhibition.

Tolerability in mice = format: in vivo
CEM-SS Leukemia cells = experiment: Uptake of radio-labelled compound in cells; format: in vitro ADME

| SMILES | activity in the cell based assay (XTT cytoprotection ranking) (HIV) | XTT (HIV) | p24 assay (p24) | disrupted viral assembly (Gag precursor protein) | EC50 (Gag precursor protein) [µM] | Active compounds identified in high throughput screen (disruption of NC-p7/oligonucleotide association) (NC-p7 protein) | tolerability in vivo (Tolerability in mice) | uptake of the compound in cells (CEM-SS Leukemia cells) |
| --- | --- | --- | --- | --- | --- | --- | --- | --- |
| O=C(NCCO)c1ccc[c]([Sb](=[O])([OH])[OH])c1 [NSC 13782] | exhibited activity | – | – | – | – | – | – | – |
| COC(=O)c1ccc[c]([Sb](=[O])([OH])[OH])c1 [NSC 13771] | – | I (inactive (0-49% protection)) | 0.2 | disrupted viral assembly | 5.5 | – | – | – |
| O=S(=O)(O)c1cc[c]([Sb](=[O])([OH])[OH])cc1 [NSC 13746] | active | A (active (80-100% protection from HIV infection)) | – | disrupted viral assembly | 10 | Active | – | – |
| O=C(O)c1cc[c]([Sb](=[O])([OH])[OH])cc1 [NSC 13760] | active | A (active (80-100% protection from HIV infection)) | 0.29 | disrupted viral assembly | 1.15 | – | – | – |
| O=C(O)c1ccc[c]([Sb](=[O])([OH])[OH])c1 [NSC 13759] | active | A (active (80-100% protection from HIV infection)) | 0.19 | disrupted viral assembly | 1.5 | – | – | – |
| O=C(O)c1ccc(C(=O)c2ccccc2C(=O)O)cc1C(=O)O [NSC 28620] | active | – | – | disrupted viral assembly | – | Active | – | – |
| CCOC(=O)CCCc1cc[c]([Sb](=[O])([OH])[OH])cc1 [NSC 13793] | – | I (inactive (0-49% protection)) | 0.14 | disrupted viral assembly | 3.25 | – | – | – |
| NC(=O)c1ccc[c]([Sb](=[O])([OH])[OH])c1 [NSC 13765] | active | A (active (80-100% protection from HIV infection)) | 0.41 | disrupted viral assembly | 3.75 | – | – | – |
| O=C(O)/C=C/c1ccc[c]([Sb](=[O])([OH])[OH])c1 [NSC 13778] | active | A (active (80-100% protection from HIV infection)) | 0.11 | disrupted viral assembly | 3.8 | Active | tolerated in vivo | energy-dependent uptake |
| O=C(O)c1cc[c]([Sb](=[O])([OH])[OH])cc1[N+](=O)[O-] [NSC 13755] | active | A (active (80-100% protection from HIV infection)) | 0.21 | disrupted viral assembly | 6.15 | Active | – | – |
